Six compounds from patent publication US11267861B2, “Peptide-oligourea foldamer compounds and methods of their use” (UREKA SARL, priority 2016, dated 2022) can be followed below.

In brackets after ≈: the same amount, converted by molar mass. Numbered stars: 1 amine (or outer) side, 2 acyl side, 3 side chain; on linkers, the order of the positions; unused ones are H or OH. Peptide text beside a SMILES is read from it. * marks the point of attachment. X2 = C[C@@H](O)[C@H](N)C(=O)N[C@@H](CO)CN*; X3 = O=C(O)[C@@H]1CCCN1C(=O)NC[C@H](CO)N*; CO = O=C([*:1])[*:2]

Data set [1] addresses T1, Carboxypeptidase A (EC 3.4.17.1) (Bos taurus, UniProt P00730).
T1 construct: from bovine pancreas (Fluka), milky suspension; purchased Fluka; host or cells: bovine pancreas
T1 sequence (P00730 111-419): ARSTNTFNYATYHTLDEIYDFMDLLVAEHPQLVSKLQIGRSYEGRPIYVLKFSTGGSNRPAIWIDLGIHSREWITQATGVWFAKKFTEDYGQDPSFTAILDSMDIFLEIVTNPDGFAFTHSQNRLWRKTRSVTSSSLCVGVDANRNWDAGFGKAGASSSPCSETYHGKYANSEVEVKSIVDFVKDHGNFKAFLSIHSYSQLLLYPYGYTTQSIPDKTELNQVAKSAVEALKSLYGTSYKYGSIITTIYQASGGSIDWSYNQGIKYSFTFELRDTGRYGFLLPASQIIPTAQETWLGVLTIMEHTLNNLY
The experiment in a line: Enzymatic degradation by carboxypeptidase A. The note with it: same results = more stable than the native peptides. It is filed as in vitro ADME, bovine. The procedure: Enzymatic Degradation—Carboxypeptidase A. Carboxypeptidase A (EC 3.4.17.1) from bovine pancreas (Fluka), milky suspension, stock solution in PBS buffer (pH 7.5, 0.01 M). For each degradation experiment, stock solutions of the peptidic substrate and the enzyme were made using phosphate-buffered saline (PBS) buffer solution. The enzyme concentrations of the stock solutions were selected such that the standard substrates were totally degraded after a maximum of 15 min (ratio 2[enzyme]:100[substrate]). PBS buffer solution (10 mM sodium phosphate, 0.14 M NaCl) was prepared as follows: Solution A (4.75 mL of 0.2 M NaH2PO4.H2O), solution B (20.25 mL of 0.2 M Na2HPO4.H2O), NaCl (4.5 g) and H2O (25 mL) were stirred for 15 min at room temperature and diluted tenfold with H2O. The pH was adjusted either with NaOH (1 M) or with HCl (1 M) prior to use. A solution of the substrate in PBS buffer (pH 7.5, 0.01 M) and a solution of the required amount of enzyme, were mixed and incubated at 25° C. for 4 hours. Degradation was stopped with concentrated AcOH, and buffer solution was added so that the total volume reached 150 μL.
(§1) The resulting mixture was analyzed by reversed-phase HPLC. A mixture of CH3CN/H2O (0.1% TFA) was used as eluent. Gradients were 10% CH3CN to 100% CH3CN in 10 minutes. The flow rate, for all separations, was 1 mL·min^−1.

The target of data set [2] is T2, Leucyl aminopeptidase (EC 3.4.11.1) (Sus scrofa, UniProt P28839).
T2 construct: from porcine kidney (Sigma); chromatographically purified suspension; purchased Sigma; host or cells: porcine kidney
T2 sequence (P28839 1-519): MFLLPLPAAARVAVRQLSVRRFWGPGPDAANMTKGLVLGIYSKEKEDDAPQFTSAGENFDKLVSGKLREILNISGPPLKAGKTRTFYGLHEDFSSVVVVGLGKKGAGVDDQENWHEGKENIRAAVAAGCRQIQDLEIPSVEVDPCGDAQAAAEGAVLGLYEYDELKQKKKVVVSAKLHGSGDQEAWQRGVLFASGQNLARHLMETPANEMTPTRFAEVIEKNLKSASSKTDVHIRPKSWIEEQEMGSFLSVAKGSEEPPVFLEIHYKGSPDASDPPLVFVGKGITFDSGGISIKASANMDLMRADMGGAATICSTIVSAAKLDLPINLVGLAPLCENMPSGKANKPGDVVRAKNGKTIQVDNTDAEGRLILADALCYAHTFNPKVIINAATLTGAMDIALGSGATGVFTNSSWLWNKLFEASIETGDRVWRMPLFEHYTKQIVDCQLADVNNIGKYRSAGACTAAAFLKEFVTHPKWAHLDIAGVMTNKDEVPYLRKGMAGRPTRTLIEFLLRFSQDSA
The experiment in a line: Enzymatic degradation by leucyl aminopeptidase. The conditions noted are these: compared to the native peptides. It is filed as in vitro ADME, porcine. How it is done: Enzymatic Degradation—Leucyl Aminopeptidase. Leucyl aminopeptidase (EC 3.4.11.1) from porcine kidney (Sigma); chromatographically purified suspension in 2.9 M (NH4)2SO4, 0.1 M Tris, 5 mM MgCl2 solution, pH 8.0; stock solution in PBS buffer (pH 7.2, 0.01 M). For each degradation experiment, stock solutions of the peptidic substrate and the enzyme were made using phosphate-buffered saline (PBS) buffer solution. […] The pH was adjusted either with NaOH (1 M) or with HCl (1 M) prior to use. A solution of the substrate in PBS buffer (pH 7.2, 0.01 M) and a solution of the required amount of enzyme, were mixed and incubated at 25° C. for 4 hours. Degradation was stopped with concentrated AcOH, and buffer solution was added so that the total volume reached 150 μL.
as §1

The target of data set [3] is T3, human glucagon receptor (Homo sapiens, UniProt P47871).
T3 construct: expressed in transfected cells; host or cells: CHO cells
The experiment in a line: Glucagon functional assay: agonist activity by cAMP production (HTRF) in transfected CHO cells. It counts as cell-based. The note with it: cAMP production, transfected CHO cells, 10 minutes at 37° C. How it is done:
Functional Assay to Examine Bioactivity of Glucagon Receptor Agonists. Evaluation of the agonist activity of compounds at the human glucagon receptor expressed in transfected CHO cells was examined by measuring their effects on cAMP production using the HTRF detection method. […] For stimulated control measurement, separate assay wells contain 100 nM glucagon were utilized.
Following incubation, the cells were lysed and the fluorescence acceptor (D2-labeled cAMP) and fluorescence donor (anti-cAMP antibody labeled with europium cryptate) were added. […] The results are expressed as a percent of the control response to 100 nM glucagon. The standard reference agonist is glucagon, which was tested in each experiment at several concentrations to generate a concentration-response curve from which its EC50 value was calculated.
HTRF (Homogeneous Time-Resolved Fluorescence) principle. The HTRF technology is based on time resolved fluorescence energy transfer (TR-FRET), which occurs between long-lived fluorophore Europium or Terbium Cryptates, and EuK or Tb respectively, as a donor and the allophycocyanin XL665, d2 or Red as acceptor. Many compounds and proteins present in biological fluids or serum are naturally fluorescent, and the use of conventional, prompt fluorescence leads to serious limitations in assay sensitivity. The use of long-lived fluorophore combined with time-resolved detection (a delay between excitation and emission detection) minimizes prompt fluorescence interference.
In general terms: Changes in cAMP serve as a functional read-out for many G protein-coupled receptors.

Data set [4] can be described thus: Solubility of glucagon analogs (UV absorbance).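 For all read-outs here: peptide stock at 3 mg/ml in 0.01 M HCl, absorbance at 280 nm read before neutralization and again on the diluted supernatant after centrifugation.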 It is filed as physicochemical. The note with it: for solubility: 0.01M HCl solution adjusted to pH 7 with Na2HPO4, pH 7, pH adjusted to 7 with Na2HPO4, incubated overnight at 4° C.; for ratio (solubility relative to reference compound 16): relative to compound 16.
Description: A solution of 3 mg/ml of glucagon (or analog) was prepared in a 0.01M HCl solution. Then 0.1 ml of the stock solution was diluted to 1 ml with HCl (0.01M) and the UV absorbance measured (to 280 nm) with nanodrop UV spectrometer. The pH of the remaining stock solution was adjusted to 7 using Na2HPO4, and the solution was incubated overnight at 4° C. The solution was then centrifuged three times (5 minutes, 4000 rotations per minute), 0.1 ml of the supernatant was removed and diluted to 1 ml with HCl solution (0.01M).
The final UV absorbance was measured.

T3 sequence (P47871 26-477): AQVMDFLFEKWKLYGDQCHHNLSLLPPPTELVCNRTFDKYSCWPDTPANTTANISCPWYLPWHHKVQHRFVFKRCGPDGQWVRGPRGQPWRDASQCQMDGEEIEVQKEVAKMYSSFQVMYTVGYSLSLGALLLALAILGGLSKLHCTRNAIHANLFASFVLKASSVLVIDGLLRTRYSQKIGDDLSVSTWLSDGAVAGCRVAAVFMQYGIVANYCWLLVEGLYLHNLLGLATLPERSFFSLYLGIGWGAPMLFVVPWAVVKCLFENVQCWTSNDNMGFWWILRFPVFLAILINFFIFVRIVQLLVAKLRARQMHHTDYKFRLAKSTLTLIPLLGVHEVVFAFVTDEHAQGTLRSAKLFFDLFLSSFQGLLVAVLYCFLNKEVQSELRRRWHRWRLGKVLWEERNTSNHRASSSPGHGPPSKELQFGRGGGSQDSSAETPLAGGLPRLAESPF

As to `CC(C)C[C@H](NC(=O)[C@H](C)NC(=O)[C@H](Cc1c[nH]c2ccccc12)NC(=O)[C@H](Cc1ccc(O)cc1)NC(=O)[C@H](CCC(=O)O)NC(=O)[C@H](C)NC(=O)[C@H](Cc1ccccc1)NC(=O)NC[C@H](CO)NC(=O)[C@@H](N)[C@@H](C)O)C(=O)N[C@@H](CC(C)C)C(=O)N[C@@H](CO)CNC(=O)N1CCC[C@H]1C(=O)O` [Compound 24] ({X2-CO}-FAEYWALL-X3), the “stability with carboxipeptidase A compared to native peptides” value in data set [1] was “same results”.

`CCCC[C@H](NC(=O)[C@H](CC(C)C)NC(=O)[C@H](Cc1c[nH]c2ccccc12)NC(=O)[C@H](CCC(N)=O)NC(=O)[C@@H](NC(=O)[C@H](Cc1ccccc1)NC(=O)[C@H](CC(=O)O)NC(=O)[C@H](CCC(N)=O)NC(=O)[C@H](C)NC(=O)[C@H](CCCNC(=N)N)NC(=O)[C@H](CCCNC(=N)N)NC(=O)[C@H](CO)NC(=O)[C@H](CC(=O)O)NC(=O)[C@H](CC(C)C)NC(=O)[C@H](Cc1ccc(O)cc1)NC(=O)[C@H](CCCCN)NC(=O)[C@H](CO)NC(=O)[C@H](Cc1ccc(O)cc1)NC(=O)[C@H](CC(=O)O)NC(=O)[C@H](CO)NC(=O)[C@@H](NC(=O)[C@H](Cc1ccccc1)NC(=O)[C@@H](NC(=O)CNC(=O)[C@H](CCC(N)=O)NC(=O)NC[C@H](CO)NC(=O)[C@@H](N)Cc1c[nH]cn1)[C@@H](C)O)[C@@H](C)O)C(C)C)C(=O)N[C@@H](CC(N)=O)C(=O)N[C@H](C(=O)O)[C@@H](C)O` [Compound 18]: the “stability (half-life) with leucyl aminopeptidase compared to native peptides” value in data set [2] was “more stable than the native peptides”.

A word on the EC50: it is the concentration that produces a half-maximal response. Lower therefore signals greater potency. What is called solubility is how much of the substance goes into solution per volume. High values mean much dissolved substance, low ones little dissolved substance. In data set [3], `CCCC[C@H](NC(=O)[C@H](CC(C)C)NC(=O)[C@H](Cc1c[nH]c2ccccc12)NC(=O)NC[C@H](C)NC(=O)[C@@H](NC(=O)[C@H](Cc1ccccc1)NC(=O)[C@H](CC(=O)O)NC(=O)[C@H](CCC(N)=O)NC(=O)[C@H](C)NC(=O)[C@H](CCCNC(=N)N)NC(=O)[C@H](CCCNC(=N)N)NC(=O)[C@H](CO)NC(=O)[C@H](CC(=O)O)NC(=O)[C@H](CC(C)C)NC(=O)[C@H](Cc1ccc(O)cc1)NC(=O)[C@H](CCCCN)NC(=O)[C@H](CO)NC(=O)[C@H](Cc1ccc(O)cc1)NC(=O)[C@H](CC(=O)O)NC(=O)[C@H](CO)NC(=O)[C@@H](NC(=O)[C@H](Cc1ccccc1)NC(=O)[C@@H](NC(=O)CNC(=O)[C@H](CCC(N)=O)NC(=O)[C@H](CO)NC(=O)[C@@H](N)Cc1c[nH]cn1)[C@@H](C)O)[C@@H](C)O)C(C)C)C(=O)N[C@@H](CC(N)=O)C(=O)N[C@H](C(=O)O)[C@@H](C)O` [Compound 56] registered a half-maximal effective concentration (EC50) of 0.072 nM. Further, in data set [4], the solubility was 700 µg/mL (≈ 204 µM) and the “ratio (solubility relative to reference compound 16)” value is given as 2.8.

The compound `CCCC[C@H](NC(=O)[C@H](CC(C)C)NC(=O)[C@H](Cc1c[nH]c2ccccc12)NC(=O)[C@H](CCC(N)=O)NC(=O)[C@@H](NC(=O)[C@H](Cc1ccccc1)NC(=O)[C@H](CC(=O)O)NC(=O)[C@H](CCC(N)=O)NC(=O)[C@H](C)NC(=O)[C@H](CCCNC(=N)N)NC(=O)NC[C@H](C)NC(=O)[C@H](CO)NC(=O)[C@H](CC(=O)O)NC(=O)[C@H](CC(C)C)NC(=O)[C@H](Cc1ccc(O)cc1)NC(=O)[C@H](CCCCN)NC(=O)[C@H](CO)NC(=O)[C@H](Cc1ccc(O)cc1)NC(=O)[C@H](CC(=O)O)NC(=O)[C@H](CO)NC(=O)[C@@H](NC(=O)[C@H](Cc1ccccc1)NC(=O)[C@@H](NC(=O)CNC(=O)[C@H](CCC(N)=O)NC(=O)[C@H](CO)NC(=O)[C@@H](N)Cc1c[nH]cn1)[C@@H](C)O)[C@@H](C)O)C(C)C)C(=O)N[C@@H](CC(N)=O)C(=O)N[C@H](C(=O)O)[C@@H](C)O` [Compound 53] had a half-maximal effective concentration (EC50) in data set [3] of 0.67 nM. Further, in data set [4], the solubility was determined as 580 µg/mL (≈ 170 µM) and the “ratio (solubility relative to reference compound 16)” value amounted to 2.3.

`CCCC[C@H](NC(=O)[C@H](CC(C)C)NC(=O)[C@H](Cc1c[nH]c2ccccc12)NC(=O)[C@H](CCC(N)=O)NC(=O)NC[C@H](C)NC(=O)[C@H](Cc1ccccc1)NC(=O)[C@H](CC(=O)O)NC(=O)[C@H](CCC(N)=O)NC(=O)[C@H](C)NC(=O)[C@H](CCCNC(=N)N)NC(=O)[C@H](CCCNC(=N)N)NC(=O)[C@H](CO)NC(=O)[C@H](CC(=O)O)NC(=O)[C@H](CC(C)C)NC(=O)[C@H](Cc1ccc(O)cc1)NC(=O)[C@H](CCCCN)NC(=O)[C@H](CO)NC(=O)[C@H](Cc1ccc(O)cc1)NC(=O)[C@H](CC(=O)O)NC(=O)[C@H](CO)NC(=O)[C@@H](NC(=O)[C@H](Cc1ccccc1)NC(=O)[C@@H](NC(=O)CNC(=O)[C@H](CCC(N)=O)NC(=O)[C@H](CO)NC(=O)[C@@H](N)Cc1c[nH]cn1)[C@@H](C)O)[C@@H](C)O)C(=O)N[C@@H](CC(N)=O)C(=O)N[C@H](C(=O)O)[C@@H](C)O` [Compound 55] returned an EC50 in data set [3] of 34 nM. In data set [4], the solubility amounted to 1390 µg/mL (≈ 401 µM) and the “ratio (solubility relative to reference compound 16)” value is given as 5.5.

With `CCCC[C@H](NC(=O)[C@H](CC(C)C)NC(=O)[C@H](Cc1c[nH]c2ccccc12)NC(=O)[C@H](CCC(N)=O)NC(=O)[C@@H](NC(=O)[C@H](Cc1ccccc1)NC(=O)[C@H](CC(=O)O)NC(=O)[C@H](CCC(N)=O)NC(=O)[C@H](C)NC(=O)[C@H](CCCNC(=N)N)NC(=O)[C@H](CCCNC(=N)N)NC(=O)[C@H](CO)NC(=O)[C@H](CC(=O)O)NC(=O)[C@H](CC(C)C)NC(=O)[C@H](Cc1ccc(O)cc1)NC(=O)[C@H](CCCCN)NC(=O)[C@H](CO)NC(=O)[C@H](Cc1ccc(O)cc1)NC(=O)[C@H](CC(=O)O)NC(=O)[C@H](CO)NC(=O)[C@@H](NC(=O)[C@H](Cc1ccccc1)NC(=O)[C@@H](NC(=O)CNC(=O)[C@H](CCC(N)=O)NC(=O)[C@H](CO)NC(=O)NC[C@@H](N)Cc1c[nH]cn1)[C@@H](C)O)[C@@H](C)O)C(C)C)C(=O)N[C@@H](CC(N)=O)C(=O)N[C@H](C(=O)O)[C@@H](C)O` [Compound 17], the “stability (half-life) with leucyl aminopeptidase compared to native peptides” value in data set [2] is listed as “more stable than the native peptides”.
